Test results reported in paper PMC11784839, “Monoaminergic neurotransmitters are bimodal effectors of tau aggregation” (Science Advances, 2025).

Target: tau (Homo sapiens, UniProt P10636)
Test: MCE Phenols Library screening, tau biosensor cell seeding assay (AvZ)
Assay type: cell-based
Conditions: for AvZ (average z score of seeding, SDs from the mean level of seeding): 10 μM phenol in cell cultures, AD brain homogenate preincubated 16 hours, two biological replicates, positive = catalyzes seeding, negative = inhibits; for Z repl 1 / Z Repl 2: Z score; for Z repl 1 / raw data 1: replicate 1; for Z Repl 2 / raw data 2: replicate 2
[1] = average Z score of the two replicates, tau seeding
[2] = average Z score of two replicates, Phenols Library screen
[3] = average Z score of the two replicates, tau biosensor seeding, MCE Phenols Library screen
[4] = average Z score of the two replicates, MCE Phenols Library screen
[5] = average puncta of the two replicates

Chain of tau (P10636 623-695 limits assumed): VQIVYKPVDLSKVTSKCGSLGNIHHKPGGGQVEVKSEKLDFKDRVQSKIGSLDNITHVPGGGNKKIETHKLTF

Row | SMILES | AvZ (average z score of seeding, SDs from the mean level of seeding) | Z repl 1 | Z Repl 2 | av puncta (average of raw data 1 and 2) | raw data 1 (puncta) | raw data 2 (puncta) | av Z [1] | av Z [2] | av Z [3] | av Z [4] | av puncta [5] | raw data 1 (raw puncta) | raw data 2 (raw puncta)
1 | CCc1ccc(O)cc1O [4-Ethylresorcinol] | -1.119 | -1.505 | -0.734 | 6604.27 | 8283.51 | 4925.02 |  |  |  |  |  |  | 
2 | CC(=O)c1c(O)c(C)c(O)c(Cc2c(O)c3c(c(C(=O)/C=C/c4ccccc4)c2O)OC(C)(C)C=C3)c1O [Rottlerin] |  | 0.296 | 1.083 | 27122.4 | 29908.4 | 24336.4 | 0.69 |  |  |  |  |  | 
3 | COc1ccc2c(=O)c(-c3ccc(O)cc3)coc2c1 [Isoformononetin] |  | 0.35 | -0.155 | 20831 | 30549.1 | 11112.8 |  | 0.098 |  |  |  |  | 
4 | C=CCc1cc(OC)c(O[C@@H](C)[C@H](O)c2ccc(O)c(OC)c2)c(OC)c1 [Myrislignan] |  | 1.234 | 0.299 | 28560.9 | 41167.3 | 15954.5 |  |  | 0.766 |  |  |  | 
5 | O=C(/C=C/c1ccc(O)c(O)c1)O[C@H]1[C@H](O)C[C@](O)(C(=O)O)C[C@H]1O [Cryptochlorogenic acid] |  | 0.935 | 0.427 | 27449.5 | 37574 | 17325 | 0.681 |  |  |  |  |  | 
6 | O=C(/C=C/c1ccc(O)c2c1[C@H](C(=O)O)[C@@H](c1ccc(O)c(O)c1)O2)O[C@H](Cc1ccc(O)c(O)c1)C(=O)O [Lithospermic acid] |  | -1.337 | -0.834 | 7079.11 | 10304.3 | 3853.96 |  |  |  | -1.085 |  |  | 
7 | CCCOC(=O)c1ccc(O)cc1 [Propylparaben] | 0.488 | 0.084 | 0.893 | 24829.8 | 27354.6 | 22304.9 |  |  |  |  |  |  | 
8 | CC(C)c1cc2c(c(O)c1O)[C@@]13CCCC(C)(C)[C@@H]1C[C@@H]2OC3=O [Carnosol] |  | 0.436 | -0.449 | 19780.5 | 31586 | 7974.93 |  | -0.006 |  |  |  |  | 
9 | Cl.Oc1ccc(CC2NCCc3cc(O)c(O)cc32)cc1 (stereo not drawn) [Higenamine (hydrochloride)] |  | -0.238 | -1.059 |  | 23487.2 | 1451.73 |  |  |  | -0.649 | 12469.5 |  | 
10 | CC(=O)c1c(O)c(C)c(O)c2c1OC1=CC(=O)C(C(C)=O)C(=O)C12C (stereo not drawn) [Usnic acid] |  | 1.459 | 0.735 | 32238.5 | 43858.6 | 20618.4 |  |  | 1.097 |  |  |  | 
11 | COc1cc2c(cc1O)CCN1Cc3c(ccc(OC)c3OC)CC21 (stereo not drawn) [Corypalmine] |  | 0.295 | -0.524 | 18532.2 | 29892.4 | 7171.93 |  | -0.114 |  |  |  |  | 
12 | Oc1cc(O)c2c(c1)O[C@@]1(c3ccc(O)c(O)c3)Oc3cc(O)c4c(c3[C@@H]2[C@H]1O)O[C@H](c1ccc(O)c(O)c1)[C@@H](O)C4 [Procyanidin A1] |  | 0.114 | 0.572 | 23298.5 | 27718.4 | 18878.6 | 0.343 |  |  |  |  |  | 
13 | COc1cc(O)c2c(=O)c(OC)c(-c3ccc(OC)c(O)c3)oc2c1 [Ayanin] |  | -1.206 | -0.903 | 7498.38 | 11871.6 | 3125.17 |  |  |  | -1.054 |  |  | 
14 | COc1ccc(C(=O)O)cc1O [Isovanillic acid] | -0.151 | 0.248 | -0.549 | 18113.3 | 29328.9 | 6897.73 |  |  |  |  |  |  | 
15 | Cc1c(C)c2c(c(C)c1O)CC[C@@](C)(CCC[C@H](C)CCC[C@H](C)CCCC(C)C)O2 [?-Vitamin E] |  | -0.172 | -0.481 |  |  |  |  |  |  | -0.326 | 15958 | 24288.2 | 7627.82
16 | COc1ccc(-c2cc(=O)c3c(O)c(OC)c(OC)c(OC)c3o2)cc1 [Gardenin B] |  | 0.816 | 0.967 | 29624.1 | 36150 | 23098.1 |  |  | 0.892 |  |  |  | 
17 | COc1cc(-c2coc3cc(O[C@@H]4O[C@H](CO)[C@@H](O)[C@H](O)[C@H]4O)c(OC)c(O)c3c2=O)ccc1O [Iristectorin B] |  | -0.293 | -0.887 |  | 22827.1 | 3295.67 |  |  |  | -0.59 | 13061.4 |  | 
18 | COC(=O)c1cc(O)c(O)c(O)c1 [Methyl gallate] | -1.311 | -1.727 | -0.895 | 4412 | 5612.12 | 3211.88 |  |  |  |  |  |  | 
19 | O=c1c(O[C@@H]2O[C@H](CO)[C@@H](O)[C@H](O)[C@H]2O)c(-c2ccc(O)cc2)oc2cc(O)cc(O)c12 [Astragalin] |  | -0.525 | -0.638 |  | 20041.3 | 5956.82 |  |  |  | -0.581 | 12999 |  | 
20 | O=c1cc(-c2ccc(O)cc2)oc2c([C@@H]3O[C@H](CO)[C@@H](O)[C@H](O)[C@H]3O)c(O)c([C@@H]3OC[C@H](O)[C@H](O)[C@H]3O)c(O)c12 [Isoschaftoside] |  | -0.121 | -0.131 | 18128.6 | 24892.1 | 11365.2 |  | -0.126 |  |  |  |  | 
21 | CC(C)=CCc1c(-c2ccc(O)cc2O)oc2c3c(cc(O)c2c1=O)OC(C)(C)C=C3 [Morusin] |  | -0.601 | -0.306 |  |  |  |  |  |  | -0.454 | 14314.5 | 19129.3 | 9499.74
22 | COc1cc(O)c(C(=O)/C=C/c2ccc(O)cc2)c(OC)c1 [Flavokawain C] |  | -0.666 | -0.177 |  |  |  |  |  |  | -0.422 | 14614.7 | 18356 | 10873.4
23 | COc1ccc(/C=C/c2cc(O)cc(O)c2)cc1 [4'-Methoxyresveratrol] |  | 0.613 | 0.599 | 26435.9 | 33711.1 | 19160.7 | 0.606 |  |  |  |  |  | 
24 | O=c1c(O[C@@H]2O[C@H](CO[C@@H]3O[C@H](CO)[C@@H](O)[C@H](O)[C@H]3O)[C@@H](O)[C@H](O)[C@H]2O)c(-c2ccc(O)cc2)oc2cc(O)cc(O)c12 [Kaempferol 3-O-gentiobioside] |  | 0.421 | -0.356 | 20180.4 | 31398.7 | 8962.19 |  | 0.032 |  |  |  |  | 
